How the values were obtained:
Experiment in all cases: Test C preemergence
Format in all cases: in vivo
Nightshade = tested on: Nightshade
Sunflower [1] = conditions: Rate 125 g/ha; scale 0 to 100, 0 no effect, 100 complete control
[2] = tested on: Surinam grass (Brachiaria decumbens); conditions: for Plant response rating (0 to 100), Surinam grass: Rate 500 g/ha, visual evaluation after 12 to 14 days
How it was run: (§1)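 Response scores (0 no effect to 100 complete control) came from visual comparison with untreated controls 12 to 14 days after treatment. Preemergence application was made to seeded soil; postemergence, to plants at the 1- to 4-leaf stage.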

[3] = tested on: bermudagrass (Cynodon dactylon); conditions: for Plant response rating (0 to 100 where 0 is no effect and 100 is complete control), Bermudagrass: Rate 500 g/ha, visual evaluation after 12 to 14 days
How it was run: as §1

[4] = tested on: cocklebur (Xanthium strumarium); conditions: for Plant response rating (0 to 100), Cocklebur: Rate 500 g/ha, visual evaluation after 12 to 14 days
How it was run: as §1

[5] = tested on: common ragweed (Ambrosia elatior); conditions: for Plant response rating (0 to 100), Ragweed, Common: Rate 500 g/ha, visual evaluation after 12 to 14 days
How it was run: as §1

corn (Zea mays) = conditions: for Plant response rating (0 to 100), Corn: Rate 500 g/ha, visual evaluation after 12 to 14 days
How it was run: as §1

[6] = tested on: crabgrass (Digitaria sanguinalis); conditions: for Plant response rating (0 to 100), Crabgrass: Rate 500 g/ha, visual evaluation after 12 to 14 days
How it was run: as §1

[7] = tested on: giant foxtail (Setaria faberii); conditions: for Plant response rating (0 to 100), Foxtail, Giant: Rate 500 g/ha, visual evaluation after 12 to 14 days
How it was run: as §1

[8] = tested on: goosegrass (Eleusine indica); conditions: for Plant response rating (0 to 100), Goosegrass: Rate 500 g/ha, visual evaluation after 12 to 14 days
How it was run: as §1

[9] = tested on: johnsongrass (Sorghum halepense); conditions: for Plant response rating (0 to 100), Johnsongrass: Rate 500 g/ha, visual evaluation after 12 to 14 days
How it was run: as §1

kochia (Kochia scoparia) = conditions: for Plant response rating (0 to 100), Kochia: Rate 500 g/ha, visual evaluation after 12 to 14 days
How it was run: as §1

[10] = tested on: lambsquarters (Chenopodium album); conditions: for Plant response rating (0 to 100), Lambsquarters: Rate 500 g/ha, visual evaluation after 12 to 14 days
How it was run: as §1

[11] = tested on: morningglory (Ipomoea hederacea); conditions: for Plant response rating (0 to 100), Morningglory: Rate 500 g/ha, visual evaluation after 12 to 14 days
How it was run: as §1

[12] = tested on: pigweed (Amaranthus retroflexus); conditions: for Plant response rating (0 to 100), Pigweed: Rate 500 g/ha, visual evaluation after 12 to 14 days
How it was run: as §1

soybean (Glycine max) = conditions: for Plant response rating (0 to 100), Soybean: Rate 500 g/ha, visual evaluation after 12 to 14 days
How it was run: as §1

[13] = tested on: velvetleaf (Abutilon theophrasti); conditions: for Plant response rating (0 to 100), Velvetleaf: Rate 500 g/ha, visual evaluation after 12 to 14 days
How it was run: as §1

[14] = tested on: woolly cupgrass (Eriochloa villosa); conditions: for Plant response rating (0 to 100), Cupgrass, Woolly: Rate 500 g/ha, visual evaluation after 12 to 14 days
How it was run: as §1

[15] = tested on: yellow nutsedge (Cyperus esculentus); conditions: for Plant response rating (0 to 100), Nutsedge: Rate 500 g/ha, visual evaluation after 12 to 14 days
How it was run: as §1

Sunflower [16] = conditions: Rate 250 g/ha, scale 0 to 100, 0 no effect, 100 complete control
[17] = Rate 125 g/ha, scale 0 to 100, 0 no effect, 100 complete control
[18] = Rate 250 g/ha, scale 0 to 100, 0 no effect, 100 complete control
[19] = preemergence, Rate 62 g/ha, scale 0 to 100
[20] = preemergence, Rate 250 g/ha, scale 0 to 100, 0 no effect, 100 complete control

CC(C)c1cccc(N2CCC(n3ccc(C(C)(C)C)n3)C2=O)c1 (centres unmarked) [Compound 111]
Plant response rating, Nightshade (Nightshade; Rate 62 g/ha, scale 0 to 100): 0 | Plant response rating, Nightshade (Nightshade; [17]): 0 | Plant response rating, Nightshade (Nightshade; [18]): 0 | Plant response rating, Sunflower (Sunflower [1]): 0 | Plant response rating, Surinam grass [2, 17]: 0 | Plant response rating, Surinam grass [2, 19]: 0 | Plant response rating (0 to 100), Surinam grass ([2]; preemergence): 10 | Plant response rating, Surinam grass [2, 20]: 0 | Plant response rating, Bermudagrass [3, 17]: 90 | Plant response rating, Bermudagrass [3, 19]: 60 | Plant response rating (0 to 100 where 0 is no effect and 100 is complete control), Bermudagrass ([3]; preemergence): 100 | Plant response rating, Bermudagrass [3, 20]: 100 | Plant response rating, Cocklebur [4, 17]: 0 | Plant response rating, Cocklebur [4, 19]: 0 | Plant response rating (0 to 100), Cocklebur ([4]; preemergence): 0 | Plant response rating, Cocklebur [4, 20]: 0 | Plant response rating, Ragweed, Common [5, 17]: 0 | Plant response rating, Ragweed, Common [5, 19]: 0 | Plant response rating (0 to 100), Ragweed, Common ([5]; preemergence): 0 | Plant response rating, Ragweed, Common [5, 20]: 0 | Plant response rating, Corn (corn (Zea mays); [17]): 0 | Plant response rating, Corn (corn (Zea mays); [19]): 0 | Plant response rating (0 to 100), Corn (corn (Zea mays); preemergence): 0 | Plant response rating, Corn (corn (Zea mays); [20]): 0 | Plant response rating, Crabgrass [6, 17]: 100 | Plant response rating, Crabgrass [6, 19]: 80 | Plant response rating (0 to 100), Crabgrass ([6]; preemergence): 100 | Plant response rating, Crabgrass [6, 20]: 100 | Plant response rating, Foxtail, Giant [7, 17]: 0 | Plant response rating, Foxtail, Giant [7, 19]: 0 | Plant response rating (0 to 100), Foxtail, Giant ([7]; preemergence): 80 | Plant response rating, Foxtail, Giant [7, 20]: 30 | Plant response rating, Goosegrass [8, 17]: 85 | Plant response rating, Goosegrass [8, 19]: 40 | Plant response rating (0 to 100), Goosegrass ([8]; preemergence): 100 | Plant response rating, Goosegrass [8, 20]: 100 | Plant response rating, Johnsongrass [9, 17]: 0 | Plant response rating, Johnsongrass [9, 19]: 0 | Plant response rating (0 to 100), Johnsongrass ([9]; preemergence): 25 | Plant response rating, Johnsongrass [9, 20]: 0 | Plant response rating, Kochia (kochia (Kochia scoparia); [17]): 0 | Plant response rating, Kochia (kochia (Kochia scoparia); [19]): 0 | Plant response rating (0 to 100), Kochia (kochia (Kochia scoparia); preemergence): 0 | Plant response rating, Kochia (kochia (Kochia scoparia); [20]): 0 | Plant response rating, Lambsquarters [10, 17]: 85 | Plant response rating, Lambsquarters [10, 19]: 70 | Plant response rating (0 to 100), Lambsquarters ([10]; preemergence): 100 | Plant response rating, Lambsquarters [10, 20]: 100 | Plant response rating, Morningglory [11, 17]: 0 | Plant response rating, Morningglory [11, 19]: 0 | Plant response rating (0 to 100), Morningglory ([11]; preemergence): 0 | Plant response rating, Morningglory [11, 20]: 0 | Plant response rating, Pigweed [12, 17]: 20 | Plant response rating, Pigweed [12, 19]: 80 | Plant response rating (0 to 100), Pigweed ([12]; preemergence): 50 | Plant response rating, Pigweed [12, 20]: 20 | Plant response rating, Soybean (soybean (Glycine max); [17]): 0 | Plant response rating, Soybean (soybean (Glycine max); [19]): 0 | Plant response rating (0 to 100), Soybean (soybean (Glycine max); preemergence): 0 | Plant response rating, Soybean (soybean (Glycine max); [20]): 0 | Plant response rating, Velvetleaf [13, 17]: 0 | Plant response rating, Velvetleaf [13, 19]: 0 | Plant response rating (0 to 100), Velvetleaf ([13]; preemergence): 0 | Plant response rating, Velvetleaf [13, 20]: 0 | Plant response rating, Cupgrass, Woolly [14, 17]: 20 | Plant response rating, Cupgrass, Woolly [14, 19]: 0 | Plant response rating (0 to 100), Cupgrass, Woolly ([14]; preemergence): 60 | Plant response rating, Cupgrass, Woolly [14, 20]: 60 | Plant response rating, Nutsedge [15, 17]: 0 | Plant response rating, Nutsedge [15, 19]: 0 | Plant response rating (0 to 100), Nutsedge ([15]; preemergence): 0 | Plant response rating, Nutsedge [15, 20]: 0 | Plant response rating, Sunflower (Sunflower [16]): 0

COc1cc(N2CCC(n3ccc(C(C)C)n3)C2=O)ccc1Cl (centres unmarked) [Compound 120]
Plant response rating, Nightshade (Nightshade; Rate 62 g/ha, scale 0 to 100): 100 | Plant response rating, Nightshade (Nightshade; [17]): 100 | Plant response rating, Nightshade (Nightshade; [18]): 100 | Plant response rating, Sunflower (Sunflower [1]): 90 | Plant response rating, Surinam grass [2, 17]: 100 | Plant response rating, Surinam grass [2, 19]: 90 | Plant response rating (0 to 100), Surinam grass ([2]; preemergence): 100 | Plant response rating, Surinam grass [2, 20]: 100 | Plant response rating, Bermudagrass [3, 17]: 100 | Plant response rating, Bermudagrass [3, 19]: 100 | Plant response rating (0 to 100 where 0 is no effect and 100 is complete control), Bermudagrass ([3]; preemergence): 100 | Plant response rating, Bermudagrass [3, 20]: 100 | Plant response rating, Cocklebur [4, 17]: 0 | Plant response rating, Cocklebur [4, 19]: 0 | Plant response rating (0 to 100), Cocklebur ([4]; preemergence): 30 | Plant response rating, Cocklebur [4, 20]: 30 | Plant response rating, Ragweed, Common [5, 17]: 100 | Plant response rating, Ragweed, Common [5, 19]: 100 | Plant response rating (0 to 100), Ragweed, Common ([5]; preemergence): 100 | Plant response rating, Ragweed, Common [5, 20]: 100 | Plant response rating, Corn (corn (Zea mays); [17]): 0 | Plant response rating, Corn (corn (Zea mays); [19]): 0 | Plant response rating (0 to 100), Corn (corn (Zea mays); preemergence): 60 | Plant response rating, Corn (corn (Zea mays); [20]): 20 | Plant response rating, Crabgrass [6, 17]: 100 | Plant response rating, Crabgrass [6, 19]: 100 | Plant response rating (0 to 100), Crabgrass ([6]; preemergence): 100 | Plant response rating, Crabgrass [6, 20]: 100 | Plant response rating, Foxtail, Giant [7, 17]: 50 | Plant response rating, Foxtail, Giant [7, 19]: 50 | Plant response rating (0 to 100), Foxtail, Giant ([7]; preemergence): 100 | Plant response rating, Foxtail, Giant [7, 20]: 60 | Plant response rating, Goosegrass [8, 17]: 100 | Plant response rating, Goosegrass [8, 19]: 100 | Plant response rating (0 to 100), Goosegrass ([8]; preemergence): 100 | Plant response rating, Goosegrass [8, 20]: 100 | Plant response rating, Johnsongrass [9, 17]: 80 | Plant response rating, Johnsongrass [9, 19]: 20 | Plant response rating (0 to 100), Johnsongrass ([9]; preemergence): 100 | Plant response rating, Johnsongrass [9, 20]: 100 | Plant response rating, Kochia (kochia (Kochia scoparia); [17]): 100 | Plant response rating, Kochia (kochia (Kochia scoparia); [19]): 100 | Plant response rating (0 to 100), Kochia (kochia (Kochia scoparia); preemergence): 100 | Plant response rating, Kochia (kochia (Kochia scoparia); [20]): 100 | Plant response rating, Lambsquarters [10, 17]: 100 | Plant response rating, Lambsquarters [10, 19]: 100 | Plant response rating (0 to 100), Lambsquarters ([10]; preemergence): 100 | Plant response rating, Lambsquarters [10, 20]: 100 | Plant response rating, Morningglory [11, 17]: 60 | Plant response rating, Morningglory [11, 19]: 60 | Plant response rating (0 to 100), Morningglory ([11]; preemergence): 100 | Plant response rating, Morningglory [11, 20]: 100 | Plant response rating, Pigweed [12, 17]: 100 | Plant response rating, Pigweed [12, 19]: 100 | Plant response rating (0 to 100), Pigweed ([12]; preemergence): 70 | Plant response rating, Pigweed [12, 20]: 50 | Plant response rating, Soybean (soybean (Glycine max); [17]): 70 | Plant response rating, Soybean (soybean (Glycine max); [19]): 60 | Plant response rating (0 to 100), Soybean (soybean (Glycine max); preemergence): 100 | Plant response rating, Soybean (soybean (Glycine max); [20]): 80 | Plant response rating, Velvetleaf [13, 17]: 100 | Plant response rating, Velvetleaf [13, 19]: 80 | Plant response rating (0 to 100), Velvetleaf ([13]; preemergence): 100 | Plant response rating, Velvetleaf [13, 20]: 100 | Plant response rating, Cupgrass, Woolly [14, 17]: 100 | Plant response rating, Cupgrass, Woolly [14, 19]: 100 | Plant response rating (0 to 100), Cupgrass, Woolly ([14]; preemergence): 100 | Plant response rating, Cupgrass, Woolly [14, 20]: 100 | Plant response rating, Nutsedge [15, 17]: 80 | Plant response rating, Nutsedge [15, 19]: 40 | Plant response rating (0 to 100), Nutsedge ([15]; preemergence): 100 | Plant response rating, Nutsedge [15, 20]: 100 | Plant response rating, Sunflower (Sunflower [16]): 100

From patent US7138361B2, “Herbicidal heterocycles” (E. I. du Pont de Nemours and Company, priority 2000, dated 2006)
